Reference: patent publication US9428519B2, “Acylated derivative of homoharringtonine, preparation method therefor, and application thereof” (HANGZHOU BENSHENG PHARMACEUTICAL CO., LTD., priority 2011, dated 2016)
In brackets after ≈: the same amount, converted by molar mass.

What was measured:
[1] = tested on: K562/adr (drug-resistant, chronic myeloid leukemia, CML); assay: MTT growth inhibition of leukemia cells, 72 h; assay type: cell-based, human; settings: Homo sapiens, K562/Adr, MTT
From the text: (§1) Leukemia cell lines: leukemia cell lines: K562/adr (drug-resistant, chronic myeloid leukemia, CML), NB4 (acute promyelocytic leukemia, AML), Kasumi-1 (acute myeloid leukemia M2 type, AML-M2), Jurkat (acute lymphoblastic leukemia, ALL), all of which are donated by Cancer Research Institute of Zhejiang University, China; and H9 (acute lymphoblastic leukemia, ALL), which is purchased from China Center for Type Culture Collection (CCTCC).
(§2) Reagents: The standard sample of homoharringtonine (HHT) is purchased from Taihua Natural Plant Pharmaceutical Co., Ltd., Shaanxi, China, the homoharringtonine derivatives of the present invention.
(§3) Obtaining 6000 well-growing leukemia cells and inoculating them into wells of a 96-well cell culture plate. The culture medium is the 1640 cell culture medium containing 10% fetal bovine serum. After adding the homoharringtonine derivatives of different concentrations and mixing uniformly, placing the plate in a carbon dioxide cell incubator (5% CO2) at 37° C. and incubated for 72 hours. Then the viable cell concentration is determined by the MTT method. In this experiment, the cell viability in control group (not treated with any compound) is set as 100%. On such basis, the cell viability (%) after treatment and the 50% inhibiting concentration of the compound for the leukemia cell growth at 72 hours (IC50 value of 72 hours) are calculated.

[2] = tested on: Kasumi-1 (acute myeloid leukemia M2 type, AML-M2); assay: MTT growth inhibition of leukemia cells, 72 h; assay type: cell-based, human; settings: for IC50 / IC90: Homo sapiens, Kasumi 1, MTT
From the text: as §1, §2, §3

[3] = tested on: Jurkat (acute lymphoblastic leukemia, ALL); assay: MTT growth inhibition of leukemia cells, 72 h; assay type: cell-based, human; settings: Homo sapiens, Jurkat
From the text: as §1, §2, §3

[4] = tested on: NB4 (acute promyelocytic leukemia, AML); assay: MTT growth inhibition of leukemia cells, 72 h; assay type: cell-based, human; settings: Homo sapiens, MTT
From the text: as §1, §2, §3

[5] = tested on: H9 (acute lymphoblastic leukemia, ALL); assay: MTT growth inhibition of leukemia cells, 72 h; assay type: cell-based, human; settings: Homo sapiens, MTT
From the text: as §1, §2, §3

[6] = tested on: RPMI8226 (multiple myeloma); assay: MTT growth inhibition of multiple myeloma cells, 72 h; assay type: cell-based, human; settings: Homo sapiens, RPMI-8226, MTT
Procedure: Multiple myeloma and lymphoma cell lines: RPMI8226 (multiple myeloma), purchased from Fuxiang Bio-tech Co. Ltd., Shanghai, China.
as §3

[7] = tested on: U87 MG (malignant glioma cell); assay: MTT growth inhibition of human solid tumor cells, 72 h; assay type: cell-based; settings: Homo sapiens, U-87 MG
Procedure: (§4) Human solid tumor cell lines: Hep-2 (laryngeal carcinoma), A549 (human lung cancer), CaES-17 (esophageal cancer cell), PC-3 (prostate cancer), CNE (nasopharyngeal carcinoma cell), and SK-OV-3 (ovarian cancer cell), all of which are purchased from China Center For Type Culture Collection; RKO (human colon adenocarcinoma cell), MGC 803 (human gastric cancer cell), MG63 (osteosarcoma) and U87 MG (malignant glioma cell), all of which are purchased from Fuxiang Bio-tech Co. Ltd., Shanghai, China; PANC-1 (pancreatic cancer), Huh7 (human liver cancer cell), Becap37 (human breast cancer cell), and Hela (human cervical cancer cell), all of which are donated by Cancer Research Institute of Zhejiang University, China.
(§5) Obtaining 4000 well-growing human solid tumor cells and inoculating them into wells of a 96-well cell culture plate. The culture medium is DMEM High Glucose cell culture medium containing 10% fetal bovine serum. The plate is placed in a carbon dioxide cell incubator (5% CO2) at 37° C. and incubated for 24 hours. After adding the homoharringtonine derivatives of different concentration and mixing uniformly, the plate is placed in a carbon dioxide cell incubator (5% CO2) at 37° C. and incubated for 72 hours. Then the viable cell concentration is determined by the MTT method and the cell viability (%) after drug treatment is calculated. In this experiment, the cell viability of control group (not treated with any compound) is set as 100%.

[8] = tested on: Hep-2 (laryngeal carcinoma); assay: as above; assay type: cell-based; settings: Homo sapiens, HEp-2
Procedure: as §4, §5

[9] = tested on: Becap37 (human breast cancer cell); assay: as above; assay type: cell-based; settings: Homo sapiens
Procedure: as §4, §5

[10] = tested on: A549 (human lung cancer); assay: as above; assay type: cell-based; settings: Homo sapiens, A549
Procedure: as §4, §5

[11] = tested on: CNE (nasopharyngeal carcinoma cell); assay: as above; assay type: cell-based; settings: Homo sapiens, MTT
Procedure: as §4, §5

[12] = tested on: CaES-17 (esophageal cancer cell); assay: as above; assay type: cell-based; settings: Homo sapiens, CaEs17
Procedure: as §4, §5

[13] = tested on: Huh7 (human liver cancer cell); assay: as above; assay type: cell-based; settings: Homo sapiens, Huh-7
Procedure: as §4, §5

[14] = tested on: MGC 803 (human gastric cancer cell); assay: as above; assay type: cell-based; settings: Homo sapiens, MGC-803
Procedure: as §4, §5

[15] = tested on: MG63 (osteosarcoma); assay: as above; assay type: cell-based; settings: Homo sapiens, MG-63, MTT
Procedure: as §4, §5

[16] = tested on: PC-3 (prostate cancer); assay: as above; assay type: cell-based; settings: Homo sapiens, MTT
Procedure: as §4, §5

[17] = tested on: Hela (human cervical cancer cell); assay: as above; assay type: cell-based; settings: Homo sapiens, HeLa, MTT
Procedure: as §4, §5

[18] = tested on: RKO (human colon adenocarcinoma cell); assay: as above; assay type: cell-based; settings: Homo sapiens, MTT
Procedure: as §4, §5

[19] = tested on: PANC-1 (pancreatic cancer); assay: as above; assay type: cell-based; settings: Homo sapiens, PANC-1, MTT
Procedure: as §4, §5

[20] = tested on: SK-OV-3 (ovarian cancer cell); assay: as above; assay type: cell-based; settings: Homo sapiens, SK-OV-3, MTT
Procedure: as §4, §5

SMILES: COC(=O)C[C@](O)(CCCC(C)(C)OC(=O)C1CC1)C(=O)O[C@@H]1C(OC)=C[C@]23CCCN2CCc2cc4c(cc2[C@H]13)OCO4 [BS-HH-062]
- IC50 [1]: 0.06 µg/mL (≈ 0.0978 µM)
- IC90 [1]: 0.75 µg/mL (≈ 1.22 µM)
- IC50 [2]: 0.002 µg/mL (≈ 0.00326 µM)
- IC90 [2]: 0.005 µg/mL (≈ 0.00815 µM)
- IC50 [3]: 0.012 µg/mL (≈ 0.0196 µM)
- IC90 [3]: ≥ 16 µg/mL
- IC50 [4]: 0.004 µg/mL (≈ 0.00652 µM)
- IC90 [4]: 0.007 µg/mL (≈ 0.0114 µM)
- IC50 [5]: 0.008 µg/mL (≈ 0.013 µM)
- IC90 [5]: 0.02 µg/mL (≈ 0.0326 µM)
- IC50 [6]: 0.007 µg/mL (≈ 0.0114 µM)
- IC90 [6]: 0.029 µg/mL (≈ 0.0473 µM)
- IC50 [7]: 0.02 µg/mL (≈ 0.0326 µM)
- IC90 [7]: 0.1 µg/mL (≈ 0.163 µM)
- IC50 [8]: 0.015 µg/mL (≈ 0.0244 µM)
- IC90 [8]: > 16 µg/mL
- IC50 [9]: 0.014 µg/mL (≈ 0.0228 µM)
- IC90 [9]: 15.6 µg/mL (≈ 25.4 µM)
- IC50 [10]: 0.04 µg/mL (≈ 0.0652 µM)
- IC90 [10]: > 16 µg/mL
- IC50 [11]: 0.028 µg/mL (≈ 0.0456 µM)
- IC90 [11]: > 16 µg/mL
- IC50 [12]: 0.058 µg/mL (≈ 0.0945 µM)
- IC90 [12]: 16 µg/mL (≈ 26.1 µM)
- IC50 [13]: 0.004 µg/mL (≈ 0.00652 µM)
- IC90 [13]: 0.049 µg/mL (≈ 0.0798 µM)
- IC50 [14]: 0.015 µg/mL (≈ 0.0244 µM)
- IC90 [14]: 0.07 µg/mL (≈ 0.114 µM)
- IC50 [15]: 0.012 µg/mL (≈ 0.0196 µM)
- IC90 [15]: 0.77 µg/mL (≈ 1.25 µM)
- IC50 [16]: 0.11 µg/mL (≈ 0.179 µM)
- IC90 [16]: > 16 µg/mL
- IC50 [17]: 0.026 µg/mL (≈ 0.0424 µM)
- IC90 [17]: 16 µg/mL (≈ 26.1 µM)
- IC50 [18]: 0.005 µg/mL (≈ 0.00815 µM)
- IC90 [18]: 0.025 µg/mL (≈ 0.0407 µM)
- IC50 [19]: 0.044 µg/mL (≈ 0.0717 µM)
- IC90 [19]: > 16 µg/mL
- IC50 [20]: 0.12 µg/mL (≈ 0.196 µM)
- IC90 [20]: > 16 µg/mL

SMILES: COC(=O)C[C@](O)(CCCC(C)(C)OC(=O)c1cccnc1Cl)C(=O)O[C@@H]1C(OC)=C[C@]23CCCN2CCc2cc4c(cc2[C@H]13)OCO4 [BS-HH-066]
- IC50 [1]: 0.03 µg/mL (≈ 0.0438 µM)
- IC90 [1]: 3.18 µg/mL (≈ 4.64 µM)
- IC50 [2]: 0.0007 µg/mL (≈ 0.00102 µM)
- IC90 [2]: 0.002 µg/mL (≈ 0.00292 µM)
- improvement of anti-Kasumi-1 activity compared with homoharringtonine ([2]; vs HHT): more than 7 fold
- IC50 [3]: 0.005 µg/mL (≈ 0.0073 µM)
- IC90 [3]: ≥ 16 µg/mL
- IC50 [4]: 0.002 µg/mL (≈ 0.00292 µM)
- IC90 [4]: 0.004 µg/mL (≈ 0.00584 µM)
- IC50 [5]: 0.003 µg/mL (≈ 0.00438 µM)
- IC90 [5]: 0.01 µg/mL (≈ 0.0146 µM)
- IC50 [6]: 0.006 µg/mL (≈ 0.00876 µM)
- IC90 [6]: 0.033 µg/mL (≈ 0.0482 µM)
- IC50 [7]: 0.007 µg/mL (≈ 0.0102 µM)
- IC90 [7]: 0.048 µg/mL (≈ 0.0701 µM)
- IC50 [8]: 0.025 µg/mL (≈ 0.0365 µM)
- IC90 [8]: > 16 µg/mL
- IC50 [9]: 0.02 µg/mL (≈ 0.0292 µM)
- IC90 [9]: 5.63 µg/mL (≈ 8.22 µM)
- IC50 [10]: 0.03 µg/mL (≈ 0.0438 µM)
- IC90 [10]: > 16 µg/mL
- IC50 [11]: 0.03 µg/mL (≈ 0.0438 µM)
- IC90 [11]: > 16 µg/mL
- IC50 [12]: 0.049 µg/mL (≈ 0.0715 µM)
- IC90 [12]: 16 µg/mL (≈ 23.4 µM)
- IC50 [13]: 0.0016 µg/mL (≈ 0.00234 µM)
- IC90 [13]: 0.023 µg/mL (≈ 0.0336 µM)
- IC50 [14]: 0.005 µg/mL (≈ 0.0073 µM)
- IC90 [14]: 0.052 µg/mL (≈ 0.0759 µM)
- IC50 [15]: 0.0032 µg/mL (≈ 0.00467 µM)
- IC90 [15]: 0.2 µg/mL (≈ 0.292 µM)
- IC50 [16]: 0.1 µg/mL (≈ 0.146 µM)
- IC90 [16]: > 16 µg/mL
- IC50 [17]: 0.021 µg/mL (≈ 0.0306 µM)
- IC90 [17]: 16 µg/mL (≈ 23.4 µM)
- IC50 [18]: 0.003 µg/mL (≈ 0.00438 µM)
- IC90 [18]: 0.023 µg/mL (≈ 0.0336 µM)
- IC50 [19]: 0.026 µg/mL (≈ 0.0379 µM)
- IC90 [19]: > 16 µg/mL
- IC50 [20]: 0.051 µg/mL (≈ 0.0744 µM)
- IC90 [20]: > 16 µg/mL
